The record followed here is patent publication US5622962A, “5α-reductase inhibitors” (priority 1995, dated 1997).

Assay [1] concerns the target T1, Type I 5α-Reductase from Human Scalp (Homo sapiens, UniProt P18405).
T1 construct: Scalp punch biopsies from graft recipient sites were obtained from human hair transplant procedures; from tissue; host or cells: human scalp punch biopsies (hair transplant graft recipient sites), homogenate, 100,000×g pellet
T1 sequence (P18405 1-259): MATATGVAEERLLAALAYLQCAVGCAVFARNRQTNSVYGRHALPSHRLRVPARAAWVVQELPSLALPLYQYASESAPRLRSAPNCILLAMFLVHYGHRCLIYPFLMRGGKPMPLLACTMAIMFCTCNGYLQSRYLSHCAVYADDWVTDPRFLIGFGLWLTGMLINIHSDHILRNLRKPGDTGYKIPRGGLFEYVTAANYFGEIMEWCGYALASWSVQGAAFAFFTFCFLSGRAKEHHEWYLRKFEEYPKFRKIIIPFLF
Put plainly: Human Type I 5α-reductase assay (conversion of [3H]-testosterone to 5α-reduced metabolites). The assay is classed as biochemical. As to conditions: 50 nM [3H]-testosterone, pH 7.5, 25°, 180 min, compared to control reaction mixtures; for inhibition at 0.3 µM: pH 7.5, 0.3 μM, read-out: percent inhibition of Type I AR.

Assay [2] deals with T2, Type II 5α-Reductase from Human Prostate (Homo sapiens, UniProt P31213).
T2 construct: The same procedure as above was used for preparations using tissue from prostate surgery; from tissue; host or cells: human prostate tissue from surgery, homogenate, 100,000×g pellet
T2 sequence (P31213 1-254): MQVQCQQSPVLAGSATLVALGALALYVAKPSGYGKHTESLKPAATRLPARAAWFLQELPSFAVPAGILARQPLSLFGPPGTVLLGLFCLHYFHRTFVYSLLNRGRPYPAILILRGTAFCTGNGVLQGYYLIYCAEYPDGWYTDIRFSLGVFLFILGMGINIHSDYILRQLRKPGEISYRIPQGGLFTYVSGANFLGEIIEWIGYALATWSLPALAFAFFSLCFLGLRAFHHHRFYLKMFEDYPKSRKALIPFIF
The assay is described as follows: Human Type II 5α-reductase assay (conversion of [3H]-testosterone to 5α-reduced metabolites). Format: biochemical. To be noted: sodium acetate pH 5.5, 25°, 30 min, compared to control reaction mixtures; for inhibition at 0.3 µM: pH 5.5, 0.3 μM, read-out: percent inhibition of Type II AR; for percent inhibition of Type II AR: 0.3 μM.

Molecules are shown by their SMILES.

`CN1C(=O)CC[C@]2(C)c3ccc(-c4cc(F)c([N+](=O)[O-])cc4F)cc3CC[C@@H]12` [Example 243, (+)-(4aR)-(10bR)-4-methyl-8-(2,5-difluoro-4-nitrophenyl)-10b-methyl-1,2,3,4,4a,5,6,10b-octahydrobenzo[f]quinolin-3-one]: the inhibition (as a rule, the change of the read-out against control, counted positive when it falls) at 0.3 µM in assay [1] amounted to 88%; in assay [2], 54%.

As for `CN1C(=O)CC[C@]2(C)c3ccc(-c4cccc5cnccc45)cc3CC[C@@H]12` [Example 241, (+)-(4aR)-(10bR)-4-methyl-8-(5-isoquinolinyl)-10b-methyl-1,2,3,4,4a,5,6,10b-octahydrobenzo[f]quinolin-3-one], the inhibition at 0.3 µM came out at 65% in assay [1] and 33% in assay [2].

Turning to `CN1C(=O)CC[C@]2(C)c3ccc(Sc4ccccn4)cc3CC[C@@H]12` [Example 111, (+)-(4aR)-(10bR)-4,10b-dimethyl-8-(2-pyridinylthio)-1,2,3,4,-4a,5,6,10b-octahydrobenzo[f]quinolin-3-one], the inhibition at 0.3 µM in assay [1] is 44%; in assay [2], 38%.

Turning to `CN1C(=O)CC[C@]2(C)c3ccc(-c4ccc5ccccc5c4)cc3CC[C@@H]12` [Example 71, (+)-(4aR)-(10bR)-4-methyl-8-(2-naphthyl)-10b-methyl-1,2,3,4,4a,5,6,10b-octahydrobenzo[f]quinolin-3-one], the inhibition at 0.3 µM amounted to 80% in assay [1] and 47% in assay [2].

For `CN1C(=O)CC[C@]2(C)c3ccc(-c4ccccc4Cl)cc3CC[C@@H]12` [Example 41, (+)-(4aR)-(10bR)-4-methyl-8-(2-chlorophenyl)-10b-methyl-1,2,3,4,4a,5,6,10b-octahydrobenzo[f]quinolin-3-one], the inhibition at 0.3 µM came out at 88% in assay [1] and 18% in assay [2].

For `CN1C(=O)CC[C@]2(C)c3ccc(-c4ccc5c(c4)Cc4ccccc4-5)cc3CC[C@@H]12` [Example 131, (+)-(4aR)-(10bR)-4-methyl-8-(2-fluorenyl)-10b-methyl-1,2,3,4,4a,5,6,10b-octahydrobenzo[f]quinolin-3-one], the values for the inhibition at 0.3 µM in assay [1] and in assay [2] were 57% and 44%, respectively.

As for `CN1C(=O)CC[C@]2(C)c3ccc(Oc4ccc5ccccc5n4)cc3CC[C@@H]12` [Example 266, (+)-(4aR)-(10bR)-4-methyl-8-(2-quinolinyloxy)-10b-methyl-1,2,3,4,4a,5,6,10b-octahydrobenzo[f]quinolin-3-one], the figures for the inhibition at 0.3 µM in assay [1] and in assay [2] were 57% and 44%, respectively.

As to `CN1C(=O)CC[C@]2(C)c3ccc(-c4ccc(Cl)cc4)cc3CC[C@@H]12` [Example 50, (+)-(4aR)-(10bR)-4-methyl-8-(4-chlorophenyl)-10b-methyl-1,2,3,4,4a,5,6,10b-octahydrobenzo[f]quinolin-3-one], in assay [1] (0.3 μM), the “percent inhibition of Type I AR” value came out at 94%. Moreover, the inhibition at 0.3 µM in assay [1] was 95%; in assay [2], 32%.

Regarding `CN1C(=O)CC[C@]2(C)c3ccc(Sc4nc5ccc(Cl)cc5s4)cc3CC[C@@H]12` [Example 158, (+)-(4aR)-(10bR)-4-methyl-8-(6-chloro-2-benzothiazolylthio)-10b-methyl-1,2,3,4,4a,5,6,10b-octahydrobenzo[f]quinolin-3-one], the inhibition at 0.3 µM was determined as 78% in assay [1] and 63% in assay [2].

Consider `CN1C(=O)CC[C@]2(C)c3ccc(Sc4ccc5c([N+](=O)[O-])cccc5n4)cc3CC[C@@H]12` [Example 169, (+)-(4aR)-(10bR)-4-methyl-8-(5-nitro-2-quinolinylthio)-10b-methyl-1,2,3,4,4a,5,6,10b-octahydrobenzo[f]quinolin-3-one], for which the inhibition at 0.3 µM in assay [1] turned out to be 75%; in assay [2], 61%.

Regarding `CN1C(=O)CC[C@]2(C)c3ccc(-c4ccccc4F)cc3CC[C@@H]12` [Example 38, (+)-(4aR)-(10bR)-4-methyl-8-(2-fluorophenyl)-10b-methyl-1,2,3,4,4a,5,6,10b-octahydrobenzo[f]quinolin-3-one], the inhibition at 0.3 µM in assay [1] was found to be 84%. Also, in assay [2], the “percent inhibition of Type II AR” value is 38% and the inhibition at 0.3 µM turned out to be 56%.

With `CN1C(=O)CC[C@]2(C)c3ccc(-c4cc(C(F)(F)F)cc(C(F)(F)F)c4)cc3CC[C@@H]12` [Example 87, (+)-(4aR)-(10bR)-4-methyl-8-(3,5-his [trifluoromethyl]phenyl)-10b-methyl-1,2,3,4,4a,5,6,10b-octahydrobenzo[f]quinolin-3-one], the inhibition at 0.3 µM in assay [1] was found to be 83%; in assay [2], 28%.

In the case of `CN1C(=O)CC[C@]2(C)c3ccc(-c4ccc(Cl)c(Cl)c4)cc3CC[C@@H]12` [Example 77, (+)-(4aR)-(10bR)-4-methyl-8-(3,4-dichlorophenyl)-10b-methyl-1,2,3,4,4a,5,6,10b-octahydrobenzo[f]quinolin-3-one], the inhibition at 0.3 µM in assay [1] came to 88%. Moreover, in assay [2], the “percent inhibition of Type II AR” value was 33% and the inhibition at 0.3 µM is 46%.

Consider `CN1C(=O)CC[C@]2(C)c3ccc(-c4c(F)cc(F)cc4F)cc3CC[C@@H]12` [Example 230, (+)-(4aR)-(10bR)-4-methyl-8-(2,4,6-trifluorophenyl)-10b-methyl-1,2,3,4,4a,5,6,10b-octahydrobenzo[f]quinolin-3-one], for which the inhibition at 0.3 µM worked out at 86% in assay [1] and 29% in assay [2].

Turning to `CN1C(=O)CC[C@]2(C)c3ccc(-c4ccc(O)c(F)c4)cc3CC[C@@H]12` [Example 28, (+)-(4aR)-(10bR)-4-methyl-8-(3-fluoro-4-hydroxyphenyl)-10b-methyl-1,2,3,4,4a,5,6,10b-octahydrobenzo[f]quinolin-3-one], the values for the inhibition at 0.3 µM in assay [1] and in assay [2] were 65% and 36%, respectively.

`CN1C(=O)CC[C@]2(C)c3ccc(-c4ccc(O)c(Cl)c4)cc3CC[C@@H]12` [Example 25, (+)-(4aR)-(10bR)-4-methyl-8-(3-chloro-4-hydroxyphenyl)-10b-methyl-1,2,3,4,4a,5,6,10b-octahydrobenzo[f]quinolin-3-one]: the inhibition at 0.3 µM in assay [1] was 83%; in assay [2] it was 31%.

With `CN1C(=O)CC[C@]2(C)c3ccc(C(=O)Oc4ccccc4)cc3CC[C@@H]12` [Example 145, (+)-(4aR)-(10bR)-4-methyl-8-phenoxycarbonyl-10b-methyl-1 2,3,4,4a,5,6,10b-octahydrobenzo[f]quinolin-3-one], the inhibition at 0.3 µM was found to be 85% in assay [1] and 41% in assay [2].

In the case of `CN1C(=O)CC[C@]2(C)c3ccc(C(=O)c4ccccc4Cl)cc3CC[C@@H]12` [Example 288, (4aR)-(10bR)-8-(2-chlorobenzoyl)-4,10b-dimethyl-1,2,3,4,4a,5,6,10b-octahydrobenzo[f]quinolin-3-one], the inhibition at 0.3 µM in assay [1] stood at 19%; in assay [2], 12%.

As to `CCN(CC)C(=O)c1cc2cc(-c3ccc4c(c3)CC[C@H]3N(C)C(=O)CC[C@]43C)ccc2oc1=O` [Example 214, (+)-(4aR)-(10bR)-4-methyl-8-[2-oxo-3-(N,N-diethylcarboxamido)-1-2H-benzopyran-6-yl)-10b-methyl-1,2,3,4,4a,5,6,10b-octahydrobenzo[f]quinolin-3-one], the inhibition at 0.3 µM in assay [1] was determined as 26%; in assay [2], 29%.
